Results: article PMC3530532, “Corticosteroid-Binding Globulin: Structure-Function Implications from Species Differences” (PLoS ONE, 2012)
Residue numbers refer to the chain shown, from its start.

Assays:
Rat CBG-RCL1 = biological target: T1, Rat CBG-RCL1 (Rattus norvegicus, UniProt P31211, A357V/P358T); test: Isothermal titration calorimetry, steroid titrated to uncleaved rat CBG-RCL1; format: binding; settings: ITC, 25°C
T1 construct: residues 5 to 374 of rat CBG (P31211); GST (N, cleaved yes); made in house; host or cells: E. coli BL21 Star (DE3)
T1 sequence (P31211 27-396 A357V/P358T): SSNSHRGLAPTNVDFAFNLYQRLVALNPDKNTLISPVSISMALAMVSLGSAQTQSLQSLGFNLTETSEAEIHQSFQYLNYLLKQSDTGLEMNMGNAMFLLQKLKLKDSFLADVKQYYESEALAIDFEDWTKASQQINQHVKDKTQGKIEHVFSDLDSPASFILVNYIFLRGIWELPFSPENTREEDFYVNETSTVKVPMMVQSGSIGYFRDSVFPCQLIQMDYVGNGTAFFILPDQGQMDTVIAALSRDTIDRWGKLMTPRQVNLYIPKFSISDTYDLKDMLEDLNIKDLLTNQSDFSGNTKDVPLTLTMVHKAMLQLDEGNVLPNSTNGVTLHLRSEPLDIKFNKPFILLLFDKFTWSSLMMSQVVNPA
Protocol: (§1) The coding sequences of residues 11 to 383 of human CBG (Swiss-Prot entry P08185) and residues 5 to 374 of rat CBG (P31211) were cloned into a pGEX-2T vector (GE Healthcare, Uppsala), yielding N-terminal glutathione-S-transferase (GST) fusion proteins. Mutations were introduced using a two-stage PCR procedure based on the QuikChange (Stratagene, Santa Clara) site-directed mutagenesis protocol. All experiments with human CBG were conducted with a mutant in which surface residue Lys126 was replaced by alanine in order to facilitate crystallization. Wild-type rat CBG (rat CBG-WT) and rat CBG mutants CBG-RCL1, CBG-RCL2 and CBG-RCL3 were produced to probe the function of the RCL residues in rat CBG. All gene constructs were confirmed by DNA sequencing prior to protein production.
(§2) The GST-tagged human and rat CBG variants were produced in E. coli BL21 Star™ (DE3) cells (Invitrogen, Carlsbad) using the ZYM-5052 auto-inducing medium. For each variant, 10 L of ZYM-5052 medium containing 100 µg/mL ampicillin were inoculated with an overnight culture of a single clone. The flasks were incubated at 37°C until the optical density at 600 nm reached 0.3. The temperature was then lowered to 20°C, and the cells were allowed to grow for an additional 20 h. The pellet was resuspended in PBS buffer (pH 7.4) containing 5 mM EDTA after cell harvesting (4 mL of buffer per gram of pellet).
The protein samples were dialyzed against ITC buffer (20 mM potassium phosphate, 50 mM NaCl, pH 7.4) and titrated with steroids in a VP-ITC microcalorimeter (Microcal, Piscataway). All solutions were filtered (0.2 µm filter pore size) and degassed for 30 min prior to the titration experiments. The sample cell was filled with protein solution containing 15 µM rat CBG or 20 µM human CBG and titrated with steroid solutions containing 150 µM and 200 µM ligand, respectively. The titrations consisted of an initial injection of 2 µL followed by 25 consecutive injections of 10 µL ligand solution at 25°C. A spacing of 240 sec between the injections was used to allow a return to the baseline. Data points from the initial injection, which are generally affected by diffusion during the initial equilibration period after experiment setup, were discarded prior to data analysis. […] The binding curve was generated by plotting the heats of injections against the ratio of ligand to protein in the cell. Integrated heat data were analyzed using nonlinear regression fit with a one-site-binding model in the Origin-7™ software provided with the VP-ITC. Changes in the free energy and entropy can be calculated using the equation: ΔG° = −RTlnK = ΔH°−TΔS°. In this equation ΔG° is the change in Gibbs free energy, R the universal gas constant, T the temperature, and K the association constant. […]

Cleaved rat CBG-RCL1 = biological target: T2, Cleaved rat CBG-RCL1 (Rattus norvegicus, UniProt P31211, A357V/P358T); test: Isothermal titration calorimetry, steroid titrated to neutrophil elastase-cleaved rat CBG-RCL1; format: binding
T2 construct: residues 5 to 374 of rat CBG (P31211); GST (N, cleaved yes); made in house; host or cells: E. coli BL21 Star (DE3)
T2 sequence (P31211 27-396 A357V/P358T limits assumed): T1 sequence (P31211 27-396 A357V/P358T)
Protocol: Cleavage of the RCL in human and rat CBG mutants was accomplished with 100 mU human neutrophil elastase (Sigma-Aldrich) per mg purified CBG at 30°C and monitored by SDS-PAGE. The cleavage reaction was stopped with AEBSF.
(§3) The protein samples were dialyzed against ITC buffer (20 mM potassium phosphate, 50 mM NaCl, pH 7.4) and titrated with steroids in a VP-ITC microcalorimeter (Microcal, Piscataway). All solutions were filtered (0.2 µm filter pore size) and degassed for 30 min prior to the titration experiments. The sample cell was filled with protein solution containing 15 µM rat CBG or 20 µM human CBG and titrated with steroid solutions containing 150 µM and 200 µM ligand, respectively. The titrations consisted of an initial injection of 2 µL followed by 25 consecutive injections of 10 µL ligand solution at 25°C. A spacing of 240 sec between the injections was used to allow a return to the baseline. Data points from the initial injection, which are generally affected by diffusion during the initial equilibration period after experiment setup, were discarded prior to data analysis. […] The binding curve was generated by plotting the heats of injections against the ratio of ligand to protein in the cell. Integrated heat data were analyzed using nonlinear regression fit with a one-site-binding model in the Origin-7™ software provided with the VP-ITC. Changes in the free energy and entropy can be calculated using the equation: ΔG° = −RTlnK = ΔH°−TΔS°. In this equation ΔG° is the change in Gibbs free energy, R the universal gas constant, T the temperature, and K the association constant. The change in enthalpy is denoted as ΔH°, and ΔS° is the change in entropy under standard conditions. The data shown in Table 2 were obtained from single titrations of each complex.

Rat CBG-WT = biological target: T3, Rat CBG-WT (Rattus norvegicus, UniProt P31211); test: Isothermal titration calorimetry, steroid titrated to rat CBG-WT; format: binding; settings: ITC, 25°C
T3 construct: residues 5 to 374 of rat CBG (P31211); GST (N, cleaved yes); made in house; host or cells: E. coli BL21 Star (DE3)
T3 sequence (P31211 27-396): T1 sequence (P31211 27-396 A357V/P358T) with V331A, T332P
Protocol: as §1, §2, §3

cleaved human CBG = biological target: cleaved human CBG; design: method as in PMID 21325280; settings: 37°C, cited from earlier work
CBG = settings: cited from earlier work
[1] = ITC, 25°C, cleaved rat CBG-RCL1

In the case of `C[C@]12CCC(=O)C=C1CC[C@@H]1[C@@H]2[C@@H](O)C[C@@]2(C)[C@H]1CC[C@]2(O)C(=O)CO` [Hydrocortisone], the “TΔS°” value (Rat CBG-RCL1) is reported as -29.02 kcal/mol, the “ΔG°” value (Rat CBG-RCL1) is reported as -9.61 kcal/mol and the “ΔH°” value (Rat CBG-RCL1) is reported as -38.62 kcal/mol. For the same compound, the Kd (Rat CBG-RCL1; single titration) was 0.095 ± 0.007 µM, the “TΔS°” value (Cleaved rat CBG-RCL1; [1]) was -30.43 kcal/mol and the “ΔG°” value (Cleaved rat CBG-RCL1; [1]) was -9.2 kcal/mol. The “ΔH°” value (Cleaved rat CBG-RCL1; [1]) was -39.63 kcal/mol, the Kd (Cleaved rat CBG-RCL1; ITC, 25°C, single titration, cleaved rat CBG-RCL1) was 0.209 ± 0.02 µM and the “decrease in binding affinity upon RCL cleavage” value (Cleaved rat CBG-RCL1; rat CBG, uncleaved vs cleaved rat CBG-RCL1, ITC 25°C) was “about 2 fold”. For the same compound, the “TΔS°” value (Rat CBG-WT; rat CBG-WT) was -20.3 kcal/mol, the “ΔG°” value (Rat CBG-WT; rat CBG-WT) was -9.44 kcal/mol and the “ΔH°” value (Rat CBG-WT; rat CBG-WT) was -29.78 kcal/mol. For the same compound, the Kd (Rat CBG-WT; single titration, uncleaved rat CBG-WT) was 0.122 ± 0.006 µM, the Kd (cleaved human CBG; cleaved human CBG-WT, read-out: K d 37°C) was 1.37 ± 0.123 µM and the “difference of affinities of uncleaved and cleaved human CBG” value (cleaved human CBG; fluorescence titration) was “about 4.7 fold”. The “fraction circulating free in plasma” value (CBG) was 4–5% and the “fraction of cortisol in plasma bound by CBG” value (CBG) was 80–90%.
